ChEMBL document CHEMBL4373743, “Selective apoptosis-inducing activity of synthetic hydrocarbon-stapled SOS1 helix with d-amino acids in H358 cancer cells expressing KRASG12C” (Eur J Med Chem, 2020)
The source made the active and inactive calls. No cut-off for these calls is given here. Bridge positions count the residues as written; N and C are the ends. Square brackets hold non-standard residues; d marks the D form. Peptide text beside a SMILES is read from it. S5 = C=CCCC[C@](C)(N)C(=O)O

Assays:
A549 [1] = test: Induction of apoptosis in human A549 cells harboring KRAS G12S mutant assessed as decrease in bcl2 protein level at 40 uM incubated for 24 hrs by Western blot analysis; type: functional, cell-based
NCI-H358 [2] = test: Induction of apoptosis in human NCI-H358 cells harboring KRAS G12C mutant incubated for 24 hrs by Annexin V-FITC/PI staining based flow cytometric analysis; type: functional, cell-based
NCI-H358 [3] = test: Induction of apoptosis in human NCI-H358 cells harboring KRAS G12C mutant assessed as necrotic cells at 2.5 uM incubated for 24 hrs by Annexin V-FITC/PI staining based flow cytometric analysis (reference value: 0.28%); type: functional
A549 [4] = test: Induction of apoptosis in human A549 cells harboring KRAS G12S mutant assessed as necrotic cells at 2.5 uM incubated for 24 hrs by Annexin V-FITC/PI staining based flow cytometric analysis (reference value: 0.16%); type: functional
NCI-H358 [5] = test: Induction of apoptosis in human NCI-H358 cells harboring KRAS G12C mutant assessed as viable cells at 20 uM incubated for 24 hrs by Annexin V-FITC/PI staining based flow cytometric analysis (reference value: 67.2%); type: functional; settings: NCI-H358, 24 h, read-out: Activity
[6] = tested on: GTPase KRas (Homo sapiens), P01116 [G12C]; test: Inhibition of mant-GDP bound N-terminal His6-tagged recombinant KRAS G12C mutant (unknown origin) by fluorescence based assay
Chain of GTPase KRas (Homo sapiens), P01116 [G12C] (P01116 whole entry G12C): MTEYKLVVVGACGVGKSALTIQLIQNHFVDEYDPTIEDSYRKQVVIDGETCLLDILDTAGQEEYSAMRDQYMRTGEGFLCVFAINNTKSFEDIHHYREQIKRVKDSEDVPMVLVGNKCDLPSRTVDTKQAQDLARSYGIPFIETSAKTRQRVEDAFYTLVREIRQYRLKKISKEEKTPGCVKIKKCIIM

A549 [7] = test: Induction of apoptosis in human A549 cells harboring KRAS G12S mutant assessed as viable cells at 2.5 uM incubated for 24 hrs by Annexin V-FITC/PI staining based flow cytometric analysis (reference value: 68.3%); type: functional; settings: A549, 24 h, read-out: Activity
A549 [8] = test: Induction of cell cycle arrest in human A549 cells harboring KRAS G12S mutant assessed as as reduction in cyclin B1 protein expression at 40 uM incubated for 24 hrs by Western blot analysis; type: functional, cell-based
NCI-H358 [9] = test: Induction of apoptosis in human NCI-H358 cells harboring KRAS G12C mutant assessed as early apoptotic cells at 2.5 uM incubated for 24 hrs by Annexin V-FITC/PI staining based flow cytometric analysis (reference value: 4.34%); type: functional
A549 [10] = test: Induction of cell cycle arrest in human A549 cells harboring KRAS G12S mutant assessed as reduction in CDK1 protein expression at 40 uM incubated for 24 hrs by Western blot analysis; type: functional, cell-based
A549 [11] = test: Induction of apoptosis in human A549 cells harboring KRAS G12S mutant assessed as late apoptotic cells at 2.5 uM incubated for 24 hrs by Annexin V-FITC/PI staining based flow cytometric analysis (reference value: 25.4%); type: functional
A549 [12] = test: Induction of apoptosis in human A549 cells harboring KRAS G12S mutant assessed as increase in bax protein level at 40 uM incubated for 24 hrs by Western blot analysis; type: functional, cell-based
[13] = tested on: GTPase KRas (Homo sapiens), P01116 [G12C]; test: Binding affinity to biotinylated N-terminal His6-tagged recombinant KRAS G12C mutant (unknown origin) assessed as dissociation constant by BLI method
NCI-H358 [14] = test: Induction of cell cycle arrest in human NCI-H358 cells harboring KRAS G12C mutant assessed as reduction in cyclin B1 protein expression at 40 uM incubated for 24 hrs by Western blot analysis; type: functional, cell-based

For `CC[C@H](C)[C@H](NC(=O)CNC(=O)[C@H](Cc1ccccc1)NC(=O)[C@H](Cc1ccccc1)NC(=O)[C@H](CCCNC(=N)N)NC(=O)[C@H](CCCNC(=N)N)NC(C)=O)C(=O)N[C@@]1(C)CCC/C=C\CCC[C@@](C)(C(=O)N[C@@H](CC(C)C)C(=O)N[C@@H](CCCCN)C(=O)N[C@H](C(=O)N[C@@H](CCC(=O)O)C(=O)N[C@@H](CCC(=O)O)C(=O)NCC(=O)N[C@@H](CC(N)=O)C(=O)O)[C@@H](C)O)NC(=O)[C@H](CC(N)=O)NC(=O)[C@H](CC(=O)O)NC(=O)[C@H]([C@@H](C)O)NC(=O)[C@H](CC(C)C)NC(=O)[C@H](CC(=O)O)NC1=O` (Ac-RRFFGI[S5]DLTDN[S5]LKTEEGN-OH; staple (Z) 7-13), the Activity (A549 [1]) was “inactive”, the Activity (NCI-H358 [2]) was “Dose-dependent effect” and the Activity (NCI-H358 [3]) was 0.14%. The Activity (A549 [4]) was 0.4%, the viability at 20 µM (NCI-H358 [5]) was 46.7% and the inhibition [6] was “Dose-dependent effect”. The viability at 2.5 µM (A549 [7]) was 60.4%, the Activity (A549 [8]) was “inactive” and the Activity (NCI-H358 [9]) was 4.22%. For the same compound, the Activity (A549 [10]) was “inactive”, the Activity (A549 [11]) was 38.5% and the Activity (A549 [12]) was “inactive”. For the same compound, the Kdiss [13] was 6.37 ×10⁻³ /s and the Activity (NCI-H358 [14]) was “Active”.
